Results published in patent US20040043483A1, “Novel tolerogenic dendritic cells and therapeutic uses therefor” (priority 2002, published 2004).

Test system: C3H spleen T cells
Assay: One-way mixed leukocyte reaction (MLR), allostimulatory capacity by [3H]TdR uptake
Type: cell-based, mouse
Conditions: zVAD-fmk 100 μM added at the beginning of 3-day MLR
Experimental: Mixed leukocyte reaction (MLR). To determine the allostimulatory capacity of DCs, one-way MLR were performed with γ-irradiated (20 Gy) DCs or spleen cells from B10 (allogeneic) or C3H (syngeneic) mice as stimulators and nylon wool-purified C3H spleen T cells (2×105) as responders. Cultures (200 μl) were established in triplicate in 96-well round-bottom microculture plates and maintained in complete medium in 5% CO2 in air at 37° C. for 3-4 days. [^3H]TdR (1 μCi/well) was added for the final 18 h of culture, and incorporation of [^3H]TdR into DNA was assessed by liquid scintillation counting in an automated counter. Results are expressed as mean cpm±1 SD. In apoptosis inhibition experiments, a common caspase inhibitor peptide, benzyloxycarbonyl-Val Ala-Asp-fluoromethyl ketone (zVAD-fmk; Alexis, San Diego, Calif.), was added (100 μM) at the beginning of the MLR culture. DMSO served as a control.
Allostimulatory capacity of liver-derived DEC205^+B220^+CD19^−cells. The allostimulatory capacity of DEC205^+, B220^+, CD19^−cells derived from B 10 liver NPCs was determined in a one-way MLR, performed as described above. […] Despite the high expression of MHC and costimulatory molecules, liver-derived DEC205^+B220^+CD19^−cells display low allostimulatory capacity.

benzyloxycarbonyl-Val Ala-Asp-fluoromethyl ketone [zVAD-fmk]
T cell proliferation induced by liver-derived DEC205+B220+CD19− cells after caspase inhibition: restored T cell proliferation
